Assay type in all cases: binding
The target in assay [1] is T1, HeLa cell extract proteins (Homo sapiens, UniProt O75153).
T1 construct: endogenous in cells; host or cells: HeLa cell extract
T1 sequence (O75153 1-1309): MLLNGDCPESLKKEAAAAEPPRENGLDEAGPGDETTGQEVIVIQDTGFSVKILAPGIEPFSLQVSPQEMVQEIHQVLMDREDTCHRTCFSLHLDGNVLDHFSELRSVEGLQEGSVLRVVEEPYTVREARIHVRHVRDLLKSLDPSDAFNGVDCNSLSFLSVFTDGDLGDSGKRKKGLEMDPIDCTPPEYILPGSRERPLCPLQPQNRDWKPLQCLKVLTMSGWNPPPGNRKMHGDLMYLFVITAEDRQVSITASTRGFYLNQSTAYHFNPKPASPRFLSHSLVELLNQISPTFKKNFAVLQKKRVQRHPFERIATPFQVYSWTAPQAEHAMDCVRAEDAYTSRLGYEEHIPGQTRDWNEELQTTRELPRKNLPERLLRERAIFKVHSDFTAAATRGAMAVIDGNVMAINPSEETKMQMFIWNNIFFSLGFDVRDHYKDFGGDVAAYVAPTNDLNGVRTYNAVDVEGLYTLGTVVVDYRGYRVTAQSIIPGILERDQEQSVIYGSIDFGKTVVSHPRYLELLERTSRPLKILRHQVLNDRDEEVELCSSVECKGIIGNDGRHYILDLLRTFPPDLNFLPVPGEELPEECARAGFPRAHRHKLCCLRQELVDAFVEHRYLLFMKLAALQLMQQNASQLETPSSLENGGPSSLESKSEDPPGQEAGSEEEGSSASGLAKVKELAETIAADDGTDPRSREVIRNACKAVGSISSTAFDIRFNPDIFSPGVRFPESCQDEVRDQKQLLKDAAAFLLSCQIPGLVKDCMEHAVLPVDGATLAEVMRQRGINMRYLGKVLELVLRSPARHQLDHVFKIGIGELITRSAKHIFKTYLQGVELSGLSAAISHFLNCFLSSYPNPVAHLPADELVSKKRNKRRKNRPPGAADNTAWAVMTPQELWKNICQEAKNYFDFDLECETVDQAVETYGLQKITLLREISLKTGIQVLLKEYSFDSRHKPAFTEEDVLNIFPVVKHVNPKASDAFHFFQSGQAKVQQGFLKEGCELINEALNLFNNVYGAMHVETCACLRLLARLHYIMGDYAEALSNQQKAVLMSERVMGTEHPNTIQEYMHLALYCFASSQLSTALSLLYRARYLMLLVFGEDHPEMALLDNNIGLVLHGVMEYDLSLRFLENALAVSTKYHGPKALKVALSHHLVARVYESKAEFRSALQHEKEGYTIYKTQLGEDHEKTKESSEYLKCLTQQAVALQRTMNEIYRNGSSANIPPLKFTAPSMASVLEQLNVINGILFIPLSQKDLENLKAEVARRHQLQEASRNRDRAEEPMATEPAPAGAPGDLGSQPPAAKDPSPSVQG

Assay [2] deals with T2, HeLa cell extract proteins (Homo sapiens, UniProt P23526).
T2 construct: endogenous in cells; host or cells: HeLa cell extract
T2 sequence (P23526 whole entry): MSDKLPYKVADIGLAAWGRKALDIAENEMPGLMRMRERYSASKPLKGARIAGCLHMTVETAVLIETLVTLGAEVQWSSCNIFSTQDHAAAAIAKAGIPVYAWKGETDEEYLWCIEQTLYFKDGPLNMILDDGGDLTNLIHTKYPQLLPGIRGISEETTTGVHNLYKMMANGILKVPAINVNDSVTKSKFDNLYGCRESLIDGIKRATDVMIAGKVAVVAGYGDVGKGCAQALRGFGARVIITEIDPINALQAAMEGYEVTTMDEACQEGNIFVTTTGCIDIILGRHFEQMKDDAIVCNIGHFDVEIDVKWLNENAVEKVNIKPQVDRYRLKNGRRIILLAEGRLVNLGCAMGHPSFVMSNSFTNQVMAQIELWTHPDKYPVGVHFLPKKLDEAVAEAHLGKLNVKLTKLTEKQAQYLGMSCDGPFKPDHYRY

In assay [3] the target is T3, HeLa cell extract proteins (Homo sapiens, UniProt P38606).
T3 construct: endogenous in cells; host or cells: HeLa cell extract
T3 sequence (P38606 whole entry): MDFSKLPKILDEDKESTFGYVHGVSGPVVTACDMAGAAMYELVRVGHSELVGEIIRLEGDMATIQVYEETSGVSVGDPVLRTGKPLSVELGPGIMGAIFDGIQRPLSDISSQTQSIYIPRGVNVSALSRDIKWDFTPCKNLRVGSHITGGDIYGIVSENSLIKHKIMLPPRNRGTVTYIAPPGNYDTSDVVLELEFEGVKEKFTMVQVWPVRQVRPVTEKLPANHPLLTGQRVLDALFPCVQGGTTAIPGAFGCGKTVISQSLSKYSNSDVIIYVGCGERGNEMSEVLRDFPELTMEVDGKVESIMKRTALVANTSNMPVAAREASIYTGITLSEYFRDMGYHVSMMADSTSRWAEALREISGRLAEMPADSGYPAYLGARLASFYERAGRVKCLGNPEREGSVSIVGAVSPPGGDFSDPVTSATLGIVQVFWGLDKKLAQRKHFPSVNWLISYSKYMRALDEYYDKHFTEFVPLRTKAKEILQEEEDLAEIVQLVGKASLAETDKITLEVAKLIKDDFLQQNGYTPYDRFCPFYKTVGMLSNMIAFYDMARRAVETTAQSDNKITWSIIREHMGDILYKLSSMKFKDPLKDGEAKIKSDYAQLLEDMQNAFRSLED

Assay [4] has as its target T4, HeLa cell extract proteins (Homo sapiens, UniProt P38646).
T4 construct: endogenous in cells; host or cells: HeLa cell extract

The target in assay [5] is T5, HeLa cell extract proteins (Homo sapiens, UniProt P53701).
T5 construct: endogenous in cells; host or cells: HeLa cell extract
T5 sequence (P53701 1-268): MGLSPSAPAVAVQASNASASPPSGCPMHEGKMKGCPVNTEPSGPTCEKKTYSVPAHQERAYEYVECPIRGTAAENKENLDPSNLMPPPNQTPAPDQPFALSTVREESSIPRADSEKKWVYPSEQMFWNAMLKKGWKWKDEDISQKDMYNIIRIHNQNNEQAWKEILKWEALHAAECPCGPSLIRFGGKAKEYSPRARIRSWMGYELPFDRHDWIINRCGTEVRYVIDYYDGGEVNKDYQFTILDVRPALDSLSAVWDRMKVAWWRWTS

Assay [6] addresses T6, HeLa cell extract proteins (Homo sapiens, UniProt P61978).
T6 construct: endogenous in cells; host or cells: HeLa cell extract

Assay [7] concerns the target T7, HeLa cell extract proteins (Homo sapiens, UniProt P62826).
T7 construct: endogenous in cells; host or cells: HeLa cell extract

The target of assay [8] is T8, HeLa cell extract proteins (Homo sapiens, UniProt Q9UKU7).
T8 construct: endogenous in cells; host or cells: HeLa cell extract
T8 sequence (Q9UKU7 23-415): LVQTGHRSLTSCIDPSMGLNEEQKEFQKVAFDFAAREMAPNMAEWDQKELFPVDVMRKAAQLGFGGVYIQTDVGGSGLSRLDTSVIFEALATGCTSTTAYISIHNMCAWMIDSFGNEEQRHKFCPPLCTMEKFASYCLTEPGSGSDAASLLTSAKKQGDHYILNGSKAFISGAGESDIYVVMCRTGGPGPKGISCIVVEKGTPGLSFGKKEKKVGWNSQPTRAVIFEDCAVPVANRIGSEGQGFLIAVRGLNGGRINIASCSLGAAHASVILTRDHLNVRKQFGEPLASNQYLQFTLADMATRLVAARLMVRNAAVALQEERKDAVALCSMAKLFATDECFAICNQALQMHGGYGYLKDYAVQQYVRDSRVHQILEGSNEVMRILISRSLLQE

In assay [9] the target is T9, HeLa cell extract proteins (Homo sapiens, UniProt Q9UPY5).
T9 construct: endogenous in cells; host or cells: HeLa cell extract
T9 sequence (Q9UPY5 1-501): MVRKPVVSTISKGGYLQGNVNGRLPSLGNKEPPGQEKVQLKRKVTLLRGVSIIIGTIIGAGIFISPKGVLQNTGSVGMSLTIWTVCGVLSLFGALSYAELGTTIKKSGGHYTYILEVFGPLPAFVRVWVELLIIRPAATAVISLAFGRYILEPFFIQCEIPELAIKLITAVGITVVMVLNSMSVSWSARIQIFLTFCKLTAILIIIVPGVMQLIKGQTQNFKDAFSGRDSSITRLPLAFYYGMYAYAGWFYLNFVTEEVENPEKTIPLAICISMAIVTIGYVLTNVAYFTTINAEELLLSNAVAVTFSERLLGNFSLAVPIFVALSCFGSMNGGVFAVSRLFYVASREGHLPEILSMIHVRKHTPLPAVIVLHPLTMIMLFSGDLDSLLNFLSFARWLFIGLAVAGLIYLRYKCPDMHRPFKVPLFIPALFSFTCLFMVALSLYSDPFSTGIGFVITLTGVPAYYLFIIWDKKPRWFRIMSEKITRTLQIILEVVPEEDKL

Where two headings read alike, the source gives them in different places.

T4 sequence (P38646 47-679): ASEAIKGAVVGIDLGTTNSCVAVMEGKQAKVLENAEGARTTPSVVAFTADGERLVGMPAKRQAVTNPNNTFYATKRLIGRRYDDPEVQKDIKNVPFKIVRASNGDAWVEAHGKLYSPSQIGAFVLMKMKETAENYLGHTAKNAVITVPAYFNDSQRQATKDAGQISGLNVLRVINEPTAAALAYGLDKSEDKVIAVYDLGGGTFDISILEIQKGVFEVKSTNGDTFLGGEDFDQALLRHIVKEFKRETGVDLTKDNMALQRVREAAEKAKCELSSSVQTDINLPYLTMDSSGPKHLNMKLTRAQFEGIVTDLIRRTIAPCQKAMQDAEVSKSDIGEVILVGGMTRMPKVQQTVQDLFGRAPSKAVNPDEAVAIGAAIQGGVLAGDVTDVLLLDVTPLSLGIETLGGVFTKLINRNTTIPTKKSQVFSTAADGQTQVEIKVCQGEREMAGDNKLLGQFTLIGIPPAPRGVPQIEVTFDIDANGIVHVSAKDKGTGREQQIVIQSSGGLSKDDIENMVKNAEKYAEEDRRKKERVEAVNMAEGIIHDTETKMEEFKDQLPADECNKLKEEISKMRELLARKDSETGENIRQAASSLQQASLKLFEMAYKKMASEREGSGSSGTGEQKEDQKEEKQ

With `Nc1nc2cccc(-c3ccccc3)c2n1Cc1ccc(Cl)c(Cl)c1` [compound 3], the “fold changes relative to vehicle control” value in assay [1] (HeLa, protein KIAA0664) is 1.11; in assay [2] (protein AHCY, HeLa), 0.86; in assay [3] (protein ATP6V1A, HeLa), 0.83; in assay [4] (protein HSPA9, HeLa), 0.98; in [5] (HeLa, protein HCCS), 0.96; in assay [6] (protein HNRNPK, HeLa), 1.02. In addition, the “fold changes relative to vehicle control” value in assay [7] (protein RAN, HeLa) turned out to be 0.93; in assay [8] (protein ACAD8, HeLa), 1.13; in [9] (captured protein SLC7A11, HeLa), 0.99.

For the compound `NCCOCCOCC(=O)Nc1nc2ncc(CNc3ccc(C(=O)NC(CCC(=O)O)C(=O)O)cc3)nc2c(=O)[nH]1` (stereo not drawn) [compound 6], the “fold changes relative to vehicle control” value in assay [1] (protein KIAA0664, HeLa) worked out at 1.01; in assay [2] (HeLa, protein AHCY) it was 1.13; in assay [3] (HeLa, protein ATP6V1A), 1.04; in assay [4] (HeLa, captured protein HSPA9) it was 0.99; in assay [5] (HeLa, protein HCCS), 0.75; in [6] (HeLa, protein HNRNPK), 1.13. Besides, the “fold changes relative to vehicle control” value was 1.11 in assay [7] (HeLa, protein RAN); 0.75 in assay [8] (HeLa, protein ACAD8); 0.93 in assay [9] (HeLa, captured protein SLC7A11).

For the compound `Nc1nc2[nH]cc(CCc3ccc(C(=O)N[C@@H](CCC(=O)O)C(=O)O)cc3)c2c(=O)[nH]1` [PTX, pemetrexed], the “fold changes relative to vehicle control” value in [1] is 1.07; in assay [2], 0.98; in [3] it was 0.9; in [4], 0.97; in assay [5] it was 0.88; in assay [6] it was 0.96. Moreover, the “fold changes relative to vehicle control” value in assay [7] amounted to 1; in [8] it was 0.83; in assay [9], 0.91.

For `Nc1nc2c(c(=O)[nH]1)N(C=O)C(CNc1ccc(C(=O)N[C@@H](CCC(=O)O)C(=O)O)cc1)CN2` (stereo partly drawn) [LEU, leucovorin], the “fold changes relative to vehicle control” value in assay [1] (protein KIAA0664, HeLa) worked out at 1.17; in [2] (HeLa, protein AHCY) it was 0.98; in assay [3] (HeLa, protein ATP6V1A), 1; in assay [4] (HeLa, captured protein HSPA9), 1.05; in [5] (HeLa, protein HCCS), 0.88; in assay [6] (HeLa, protein HNRNPK), 0.94. The “fold changes relative to vehicle control” value in [7] (HeLa, protein RAN) came to 0.98; in [8] (HeLa, protein ACAD8), 0.79; in assay [9] (HeLa, captured protein SLC7A11) it was 0.96.

As to `CCCCCCOc1ccc(Cc2cnc(N)nc2N)cc1` [compound 1], the “fold changes relative to vehicle control” value in [1] (HeLa, protein KIAA0664) was found to be 1.17; in assay [2] (protein AHCY, HeLa) it was 1.01; in assay [3] (protein ATP6V1A, HeLa), 1.04; in [4] (protein HSPA9, HeLa), 0.95; in [5] (HeLa, protein HCCS), 0.84; in assay [6] (protein HNRNPK, HeLa), 0.99. The “fold changes relative to vehicle control” value was found to be 1.1 in [7] (protein RAN, HeLa); 1.11 in [8] (protein ACAD8, HeLa); 0.98 in [9] (captured protein SLC7A11, HeLa).

For `NCCCNc1ccc(C(=O)NC(CCC(=O)O)C(=O)O)cc1` (stereo not drawn) [compound 7], the “fold changes relative to vehicle control” value stood at 1.12 in [1] (protein KIAA0664, HeLa); 0.99 in assay [2] (HeLa, protein AHCY); 0.93 in assay [3] (HeLa, protein ATP6V1A); 0.97 in [4] (HeLa, captured protein HSPA9); 0.98 in assay [5] (HeLa, protein HCCS); 0.95 in assay [6] (HeLa, protein HNRNPK). Also, the “fold changes relative to vehicle control” value in [7] (HeLa, protein RAN) was determined as 0.95; in assay [8] (HeLa, protein ACAD8) it was 0.77; in assay [9] (HeLa, captured protein SLC7A11) it was 0.95.

As to `CCCCCCOc1cccc(Cc2cnc(N)nc2N)c1` [compound 2], the “fold changes relative to vehicle control” value in assay [1] (HeLa, protein KIAA0664) stood at 1.25; in assay [2] (protein AHCY, HeLa), 1.26; in [3] (protein ATP6V1A, HeLa), 1.5; in assay [4] (protein HSPA9, HeLa), 1.1; in assay [5] (HeLa, protein HCCS) it was 0.9; in assay [6] (protein HNRNPK, HeLa), 1.39. In addition, the “fold changes relative to vehicle control” value in assay [7] (protein RAN, HeLa) is given as 1.8; in assay [8] (protein ACAD8, HeLa) it was 1.19; in assay [9] (captured protein SLC7A11, HeLa) it was 0.92.

Values taken from publication PMC6199744, “Development of Chemical Proteomics for the Folateome and Analysis of the Kinetoplastid Folateome” (ACS Infectious Diseases, 2018).
